Legend:
Test in all cases: relative viability (nuclei count vs DMSO), 5 days (fraction); higher = more cells survive
[1] = tested on: NCI-H520
How it was run: (§1)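 After 5 days of treatment, lung cancer cells in 1536-well plates were fixed and stained in a single step (final 0.05% Triton X-100, 1% formaldehyde, 1 ug/ml Hoechst) and their nuclei counted on 4× images. Treatment had been applied by pin tool the day after seeding as one drug alone or as a fixed anchor-drug dose with five library-drug doses (not always all listed) in √10 steps. Relative viability is the nuclei count of treated wells divided by that of vehicle wells, and values are medians of duplicate plates.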

[2] = tested on: HCC-827
How it was run: as §1

[3] = tested on: SW 1573
How it was run: as §1

[4] = tested on: NCI-H2023
How it was run: as §1

[5] = tested on: LXF-289
How it was run: as §1

[6] = tested on: COR-L 105
How it was run: as §1

[7] = tested on: A-427
How it was run: as §1

[8] = tested on: LCLC-103H
How it was run: as §1

[9] = tested on: NCI-H1993
How it was run: as §1

[10] = tested on: HCC-44
How it was run: as §1

[11] = tested on: SW 900
How it was run: as §1

[12] = tested on: NCI-H1975
How it was run: as §1

Compound `Cc1csc(=NC2CCCCC2)n1/N=C/c1ccc(O)c(O)c1O` [MIM1] + COc1cccc2cc(-c3nc([C@H]4CC[C@H](C(=O)O)CC4)n4ncnc(N)c34)[nH]c12 [OSI-027] (partner 0.5 µM) has a relative viability ([1]; first compound 2 µM) of 0.249, a relative viability ([1]; first compound 6.325 µM) of 0.24 and a relative viability ([1]; first compound 20 µM) of 0.25. It also gave a relative viability ([2]; first compound 0.2 µM) of 0.758, a relative viability ([2]; first compound 0.6325 µM) of 0.775 and a relative viability ([2]; first compound 2 µM) of 0.695. It also gave a relative viability ([2]; first compound 6.325 µM) of 0.529, a relative viability ([2]; first compound 20 µM) of 0.187 and a relative viability ([3]; first compound 0.2 µM) of 0.689. It also gave a relative viability ([3]; first compound 0.6325 µM) of 0.724, a relative viability ([3]; first compound 2 µM) of 0.544 and a relative viability ([3]; first compound 6.325 µM) of 0.46. For the same compound, the relative viability ([3]; first compound 20 µM) was 0.0875, the relative viability ([4]; first compound 0.2 µM) was 0.422 and the relative viability ([4]; first compound 0.6325 µM) was 0.501. For the same compound, the relative viability ([4]; first compound 2 µM) was 0.305, the relative viability ([4]; first compound 6.325 µM) was 0.182 and the relative viability ([4]; first compound 20 µM) was 0.0588. It also gave a relative viability ([5]; first compound 0.2 µM) of 0.782, a relative viability ([5]; first compound 0.6325 µM) of 0.586 and a relative viability ([5]; first compound 2 µM) of 0.806. It also gave a relative viability ([5]; first compound 6.325 µM) of 0.686, a relative viability ([5]; first compound 20 µM) of 0.441 and a relative viability ([6]; first compound 0.2 µM) of 0.733. The relative viability ([6]; first compound 0.6325 µM) was 0.725, the relative viability ([6]; first compound 2 µM) was 0.596 and the relative viability ([6]; first compound 6.325 µM) was 0.582. For the same compound, the relative viability ([6]; first compound 20 µM) was 0.552, the relative viability ([7]; first compound 0.2 µM) was 0.432 and the relative viability ([7]; first compound 2 µM) was 0.48. It also gave a relative viability ([7]; first compound 6.325 µM) of 0.456, a relative viability ([7]; first compound 20 µM) of 0.191 and a relative viability ([8]; first compound 0.2 µM) of 0.467. For the same compound, the relative viability ([8]; first compound 0.6325 µM) was 0.422, the relative viability ([8]; first compound 2 µM) was 0.468 and the relative viability ([8]; first compound 6.325 µM) was 0.435. It also gave a relative viability ([8]; first compound 20 µM) of 0.304, a relative viability ([9]; first compound 0.2 µM) of 0.515 and a relative viability ([9]; first compound 0.6325 µM) of 0.57. The relative viability ([9]; first compound 2 µM) was 0.557, the relative viability ([9]; first compound 6.325 µM) was 0.518 and the relative viability ([9]; first compound 20 µM) was 0.474. It also gave a relative viability ([10]; first compound 0.2 µM) of 0.699, a relative viability ([10]; first compound 0.6325 µM) of 0.5 and a relative viability ([10]; first compound 2 µM) of 0.271. It also gave a relative viability ([10]; first compound 6.325 µM) of 0.448, a relative viability ([10]; first compound 20 µM) of 0.184 and a relative viability ([11]; first compound 0.2 µM) of 0.54. It also gave a relative viability ([11]; first compound 0.6325 µM) of 0.789, a relative viability ([11]; first compound 2 µM) of 0.703 and a relative viability ([11]; first compound 6.325 µM) of 0.441. The relative viability ([11]; first compound 20 µM) was 0.191, the relative viability ([12]; first compound 0.2 µM) was 0.704 and the relative viability ([12]; first compound 0.6325 µM) was 0.734. For the same compound, the relative viability ([12]; first compound 2 µM) was 0.584, the relative viability ([12]; first compound 6.325 µM) was 0.36 and the relative viability ([12]; first compound 20 µM) was 0.336.
